Values joined by “and” are separate entries in the source; they are usually repeats but may differ in a detail not shown here. Identical values can stand only once.
Columns and labels:
HK-2 cells = assay: HK-2 cell viability, MTT assay, with or without co-cultured HLMs; format: cell-based, human; settings: GA 100 µM alone
Method: HK-2 cells obtained from Peking Union Medical College were maintained in D/F12 medium containing 10% fetal bovine serum, 2 mM glutamine and 1 × 10^5 U/L penicillin and streptomycin at 37 °C in a 5% CO2 atmosphere. […] The samples containing HLMs were prepared in an ice bath, and three replicates were tested for each dose. In brief, HK-2 cells (100 µL) were seeded at 3 × 10^5cells/mL in 96-well plates. After 12 h, 200 µL of the test compound was added. For the BAK and GA with HLMs group, GA was pre-incubated with NADPH in HLMs for 30 min at 37 °C and then mixed with BAK; for the other groups, all tested compounds except NADPH were mixed, and NADPH was then added to start the metabolic reaction. After 4 h of culture, 100 µL of 0.5 g/L MTT was added, and the cells were cultured for 4 h. Subsequently, 150 µL of 4% isopropanol was added to cells for 15 min at 37 °C, and the absorbance at 570 nm was then read by a microplate reader (Multiskan MK3, Thermo, USA). The relative cell viability (%) was calculated as follows: Mean Absorbance of Sample/Mean Absorbance of Vehicle Control × 100%.

BAK metabolism in HLMs = assay: Metabolic elimination of BAK in HLMs and its inhibition by GA (HPLC); format: in vitro ADME, human; settings: for Remaining percentage of GA (%) / Inhibition of BAK by GA (%): 30 min, mean; for Inhibition of BAK by GA, single samples / remaining of GA (%), single samples: t=30 min
Method: The HLM mixtures were prepared on ice. […] At the end of the incubation (0 or 30 min), 200 µL of methanol-acetonitrile (1:1, V:V) solution containing tanshinone II A (internal standard) was added to terminate the reaction. The mixtures were then vortexed for 2 min followed by centrifugation at 14,500 rpm for 10 min. A 10 µL aliquot of the supernatant was then injected for HPLC analysis. […] RContr is the percentage of BAK remaining in the BAK group.

CYP2C9 = target: T1, CYP2C9 (Homo sapiens, UniProt P11712); assay: Inhibition of CYP activities by GA in HLMs (tolbutamide); format: biochemical
T1 construct: tissue iPhase Pharmaceutical Services (Beijing, China) Lot # 7MMC011; host or cells: pooled human liver microsomes
T1 sequence (P11712 whole entry): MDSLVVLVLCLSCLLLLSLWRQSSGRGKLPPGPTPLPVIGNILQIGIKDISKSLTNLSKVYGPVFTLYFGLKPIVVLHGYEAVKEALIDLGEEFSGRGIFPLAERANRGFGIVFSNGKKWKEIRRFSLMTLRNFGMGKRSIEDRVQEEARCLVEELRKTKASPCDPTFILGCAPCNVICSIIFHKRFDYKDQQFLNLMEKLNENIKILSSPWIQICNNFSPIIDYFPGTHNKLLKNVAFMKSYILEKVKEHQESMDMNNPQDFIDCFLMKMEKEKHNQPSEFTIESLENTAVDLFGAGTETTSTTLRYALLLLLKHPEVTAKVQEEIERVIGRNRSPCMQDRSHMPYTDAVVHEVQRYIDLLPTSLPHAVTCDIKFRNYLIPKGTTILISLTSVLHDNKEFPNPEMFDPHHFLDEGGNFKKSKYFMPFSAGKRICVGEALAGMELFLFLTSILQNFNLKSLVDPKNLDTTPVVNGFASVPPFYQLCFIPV
Method: (§1) The samples containing HLMs were prepared in an ice bath, and three replicates of each dose were tested.
(§2) The reaction system consisted of 0.5 g/L HLMs, 1 mM NADPH, 25 µM phenacetin (CYP1A2 substrate), 25 µM tolbutamide (CYP2C9 substrate), 25 µM mephenytoin (CYP2C19 substrate), 10 µM dextromethorphan (CYP2D6 substrate) and 10 µM midazolam (CYP3A4 substrate). After incubation at 37 °C for 30 min, 200 µL of methanol containing 100 µg/L propranolol hydrochloride was added to terminate the reaction. The samples were then treated, and the corresponding substrate metabolites of CYP isoforms were detected according to a previously described method ([Shen et al., 2013]).

CYP3A4 = target: T2, CYP3A4 (Homo sapiens, UniProt P08684); assay: Inhibition of CYP activities by GA in HLMs (midazolam); format: biochemical
T2 construct: was investigated in HLMs; tissue iPhase Pharmaceutical Services (Beijing, China) Lot # 7MMC011; host or cells: pooled human liver microsomes
T2 sequence (P08684 whole entry): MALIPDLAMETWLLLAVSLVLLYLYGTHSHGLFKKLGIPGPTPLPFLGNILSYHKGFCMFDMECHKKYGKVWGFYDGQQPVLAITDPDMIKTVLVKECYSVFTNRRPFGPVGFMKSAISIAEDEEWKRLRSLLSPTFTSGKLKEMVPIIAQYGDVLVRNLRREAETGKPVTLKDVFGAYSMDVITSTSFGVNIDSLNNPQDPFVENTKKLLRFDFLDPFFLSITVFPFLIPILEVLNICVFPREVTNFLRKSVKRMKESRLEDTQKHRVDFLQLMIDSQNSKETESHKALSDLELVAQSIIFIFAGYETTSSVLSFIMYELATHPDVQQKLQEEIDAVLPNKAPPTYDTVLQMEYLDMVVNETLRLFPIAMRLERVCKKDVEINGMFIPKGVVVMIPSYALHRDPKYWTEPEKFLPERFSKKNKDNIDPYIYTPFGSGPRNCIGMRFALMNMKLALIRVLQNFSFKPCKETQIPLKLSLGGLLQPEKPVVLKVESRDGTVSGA
Method: as §1, §2

Remaining percentage of GA (%) (BAK metabolism in HLMs; GA 12.5 µM with BAK 10 µM, HLMs): 99.37 ± 9.39% and 99.37% | remaining of GA (%), single samples (BAK metabolism in HLMs; GA 12.5 µM, BAK 10 µM): 94.84% and 93.11% and 110.17% | Remaining percentage of GA (%) (BAK metabolism in HLMs; GA 62.5 µM with BAK 10 µM, HLMs): 100.7 ± 12.33% and 100.77% | remaining of GA (%), single samples (BAK metabolism in HLMs; GA 62.5 µM, BAK 10 µM): 112.61% and 101.67% and 88.01% | remaining of GA (%), single samples (BAK metabolism in HLMs; GA 93.75 µM, BAK 10 µM): 94.57% and 101.22% | Remaining percentage of GA (%) (BAK metabolism in HLMs; GA 125.0 µM with BAK 10 µM, HLMs): 107.8 ± 7.54% and 107.76% | remaining of GA (%), single samples (BAK metabolism in HLMs; GA 125 µM, BAK 10 µM): 101.56% and 105.56% and 116.14% | GA concentrations at which significant inhibition of BAK metabolic clearance was observed (BAK metabolism in HLMs; HLMs, BAK 10 µM): above 12.5 µM | IC50 (CYP2C9; HLMs, 30 min pre-incubation with NADPH, tolbutamide 25 µM): 26.5 ± 3.08 µM | activity at 30 min, 0.1 µM (CYP2C9; human, human liver microsomes, probe tolbutamide 25 µM, CYP2C9-30min, GA 0.1000, vs control, read-out: Relative activity (%)): 114% | activity at 30 min, 1 µM (CYP2C9; human, human liver microsomes, probe tolbutamide 25 µM, CYP2C9-30min, GA 1.0000, vs control, read-out: Relative activity (%)): 81% | activity at 30 min, 6.25 µM (CYP2C9; human, human liver microsomes, probe tolbutamide 25 µM, CYP2C9-30min, GA 6.2500, vs control, read-out: Relative activity (%)): 76.2% | activity at 30 min, 31.25 µM (CYP2C9; human, human liver microsomes, probe tolbutamide 25 µM, CYP2C9-30min, GA 31.2500, vs control, read-out: Relative activity (%)): 56.1% | activity at 30 min, 100 µM (CYP2C9; human, human liver microsomes, probe tolbutamide 25 µM, CYP2C9-30min, GA 100.0000, vs control, read-out: Relative activity (%)): 48.9% | activity at 30 min, 156.25 µM (CYP2C9; human, human liver microsomes, probe tolbutamide 25 µM, CYP2C9-30min, GA 156.2500, vs control, read-out: Relative activity (%)): 46.2% | activity at 30 min, 312.5 µM (CYP2C9; human, human liver microsomes, probe tolbutamide 25 µM, CYP2C9-30min, GA 312.5000, vs control, read-out: Relative activity (%)): 18.1% | activity at 30 min, […] (CYP2C9; human, human liver microsomes, probe tolbutamide 25 µM, read-out: Relative activity (%)): 35.9% | activity at 30 min, 1000 µM (CYP2C9; human, human liver microsomes, probe tolbutamide (25 µM), CYP2C9-30min, GA 1000.0000, vs control, read-out: Relative activity (%)): 14.9% | IC50 (CYP3A4; HLMs, 30 min pre-incubation with NADPH, midazolam 10 µM, µM): 1.53 ± 2.25 µM | activity at 30 min, 0.1 µM (CYP3A4; human, human liver microsomes, probe midazolam (10 µM), CYP3A4-30min, GA 0.10, vs control, read-out: Relative activity (%)): 95.9% | activity at 30 min, 1 µM (CYP3A4; human, human liver microsomes, probe midazolam (10 µM), CYP3A4-30min, GA 1.00, vs control, read-out: Relative activity (%)): 64.6% | activity at 30 min, 6.25 µM (CYP3A4; human, human liver microsomes, probe midazolam (10 µM), CYP3A4-30min, GA 6.25, vs control, read-out: Relative activity (%)): 39.1% | activity at 30 min, 31.25 µM (CYP3A4; human, human liver microsomes, probe midazolam (10 µM), CYP3A4-30min, GA 31.25, vs control, read-out: Relative activity (%)): 13.5% | activity at 30 min, 100 µM (CYP3A4; human, human liver microsomes, probe midazolam (10 µM), CYP3A4-30min, GA 100.00, vs control, read-out: Relative activity (%)): 15.2% | activity at 30 min, 156.25 µM (CYP3A4; human, human liver microsomes, probe midazolam (10 µM), CYP3A4-30min, GA 156.25, vs control, read-out: Relative activity (%)): 13.1% | activity at 30 min, 312.5 µM (CYP3A4; human, human liver microsomes, probe midazolam (10 µM), CYP3A4-30min, GA 312.50, vs control, read-out: Relative activity (%)): 0.261% | activity at 30 min, 1000 µM (CYP3A4; human, human liver microsomes, probe midazolam (10 µM), CYP3A4-30min, GA 1000.00, vs control, read-out: Relative activity (%)): 0.298% | activity at 30 min, […] (CYP3A4; human, human liver microsomes, probe midazolam (10 µM), read-out: Relative activity (%)): 3.63%
SMILES: CC1(C)[C@@H](O)CC[C@]2(C)[C@H]3C(=O)C=C4[C@@H]5C[C@@](C)(C(=O)O)CC[C@]5(C)CC[C@@]4(C)[C@]3(C)CC[C@@H]12 [GA, Glycyrrhetinic acid]
effect on HK-2 cell survival (HK-2 cells): did not affect | Inhibition of BAK by GA (%) (BAK metabolism in HLMs; GA 12.5 µM, BAK 10 µM, HLMs): 23% and 22.72 ± 4.55% and 22.72% | Inhibition of BAK by GA, single samples (BAK metabolism in HLMs; GA 12.5 µM, BAK 10 µM): 17.95% and 23.22% and 27.00% | Inhibition of BAK by GA (%) (BAK metabolism in HLMs; GA 62.5 µM, BAK 10 µM, HLMs): 44% and 43.85 ± 22.41% and 43.85% | Inhibition of BAK by GA (%) (BAK metabolism in HLMs; GA 125.0 µM, BAK 10 µM, HLMs): 92% and 92.00 ± 4.64% | Inhibition of BAK by GA, single samples (BAK metabolism in HLMs; GA 125 µM, BAK 10 µM): 97.25% and 88.45% and 90.28%

From publication PMC5126668 (PeerJ, 2016)
